Where two headings read alike, the source gives them in different places.

In one experiment the target is PARP2 (Homo sapiens (Human), UniProt Q9UGN5). Description: PARP2 biochemical assay (BPS kit).
In the next experiment the target is PARP1 (Homo sapiens (Human), UniProt P09874). Description: PARP1 biochemical assay (Trevigen kit). The source says:
PARP1 biochemical assay was purchased as a kit from Trevigen (cat.#4676-096-K) and used per manufacturers recommendations.

Experiment [1] has as its system total β-catenin in SW480 colorectal cells. Description: Total β-catenin MSD 96-well plate assay for SW480 cells. The conditions noted are these: Homo sapiens, SW480, read-out: SW480-Total beta-catenin (TBC) IC50 IP.
In experiment [2] the test system is Axin2 accumulation in SW480 cells. Description: Axin2 384 immunofluorescence assay. It is filed as cell-based. Particulars: Homo sapiens, read-out: Axin2 384 IF EC50.
In experiment [3] the target is 6×HIS-tankyrase1 (1091-1325) (Homo sapiens (Human), UniProt O95271). Kind of experiment: Tankyrase 1 biochemical assay (AlphaLisa, PARsylation). The conditions noted are these: read-out: TNKS1 IC50.
Experiment [4] has as its target 6×HIS-tankyrase 2 (946-1162) (Homo sapiens (Human), UniProt Q9H2K2). Description: Tankyrase 2 biochemical assay (AlphaLisa, PARsylation). Particulars: 250 nM NAD; read-out: TNKS2 IC50.

Sequence of PARP2 (Q9UGN5 whole entry): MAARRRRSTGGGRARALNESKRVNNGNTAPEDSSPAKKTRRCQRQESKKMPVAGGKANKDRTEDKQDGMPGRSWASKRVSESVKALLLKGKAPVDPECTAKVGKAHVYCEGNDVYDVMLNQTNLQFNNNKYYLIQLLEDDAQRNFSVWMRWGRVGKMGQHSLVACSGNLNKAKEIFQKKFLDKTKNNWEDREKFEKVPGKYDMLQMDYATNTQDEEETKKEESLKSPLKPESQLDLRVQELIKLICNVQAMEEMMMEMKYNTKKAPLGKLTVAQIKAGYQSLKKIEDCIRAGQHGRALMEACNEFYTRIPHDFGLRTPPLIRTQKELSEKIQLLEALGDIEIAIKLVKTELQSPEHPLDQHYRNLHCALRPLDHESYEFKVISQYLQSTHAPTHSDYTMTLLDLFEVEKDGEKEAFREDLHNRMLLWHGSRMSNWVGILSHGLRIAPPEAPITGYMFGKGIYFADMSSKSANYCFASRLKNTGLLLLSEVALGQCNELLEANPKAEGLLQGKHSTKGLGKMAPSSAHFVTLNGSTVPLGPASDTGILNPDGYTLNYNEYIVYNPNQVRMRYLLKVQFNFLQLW
Sequence of 6×HIS-tankyrase1 (1091-1325) (O95271 1091-1325): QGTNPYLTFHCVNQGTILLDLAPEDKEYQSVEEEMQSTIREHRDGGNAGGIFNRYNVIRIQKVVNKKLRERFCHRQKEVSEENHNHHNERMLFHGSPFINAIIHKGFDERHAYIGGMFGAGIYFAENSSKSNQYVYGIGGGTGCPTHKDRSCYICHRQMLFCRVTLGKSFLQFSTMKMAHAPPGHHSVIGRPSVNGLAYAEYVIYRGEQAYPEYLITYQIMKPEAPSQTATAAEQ
Sequence of PARP1 (P09874 whole entry): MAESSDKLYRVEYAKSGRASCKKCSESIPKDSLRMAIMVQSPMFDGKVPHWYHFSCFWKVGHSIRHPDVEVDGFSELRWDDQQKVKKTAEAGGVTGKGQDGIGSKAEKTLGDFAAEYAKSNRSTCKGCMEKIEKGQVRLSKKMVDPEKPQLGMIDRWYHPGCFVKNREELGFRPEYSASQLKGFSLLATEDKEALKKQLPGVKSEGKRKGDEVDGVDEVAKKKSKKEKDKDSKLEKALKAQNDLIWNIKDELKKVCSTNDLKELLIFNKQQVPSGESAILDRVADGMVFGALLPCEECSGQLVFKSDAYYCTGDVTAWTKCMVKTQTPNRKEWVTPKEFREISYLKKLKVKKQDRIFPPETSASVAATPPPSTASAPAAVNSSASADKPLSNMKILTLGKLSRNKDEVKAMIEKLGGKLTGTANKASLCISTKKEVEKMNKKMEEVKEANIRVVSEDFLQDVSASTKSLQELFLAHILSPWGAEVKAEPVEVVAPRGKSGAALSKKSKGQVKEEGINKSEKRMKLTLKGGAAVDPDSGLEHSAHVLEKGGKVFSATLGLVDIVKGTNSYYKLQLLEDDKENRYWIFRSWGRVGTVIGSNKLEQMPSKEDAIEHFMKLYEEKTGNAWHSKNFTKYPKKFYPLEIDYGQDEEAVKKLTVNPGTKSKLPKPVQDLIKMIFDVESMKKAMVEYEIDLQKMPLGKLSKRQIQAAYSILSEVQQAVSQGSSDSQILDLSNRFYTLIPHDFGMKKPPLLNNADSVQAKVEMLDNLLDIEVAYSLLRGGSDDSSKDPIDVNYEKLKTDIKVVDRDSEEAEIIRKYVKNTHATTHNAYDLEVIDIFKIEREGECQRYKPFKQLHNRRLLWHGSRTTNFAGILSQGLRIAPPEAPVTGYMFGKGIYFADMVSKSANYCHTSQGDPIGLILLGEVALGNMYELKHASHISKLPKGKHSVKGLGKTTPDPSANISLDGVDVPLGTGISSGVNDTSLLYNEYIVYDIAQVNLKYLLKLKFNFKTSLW
Sequence of 6×HIS-tankyrase 2 (946-1162) (Q9H2K2 946-1162): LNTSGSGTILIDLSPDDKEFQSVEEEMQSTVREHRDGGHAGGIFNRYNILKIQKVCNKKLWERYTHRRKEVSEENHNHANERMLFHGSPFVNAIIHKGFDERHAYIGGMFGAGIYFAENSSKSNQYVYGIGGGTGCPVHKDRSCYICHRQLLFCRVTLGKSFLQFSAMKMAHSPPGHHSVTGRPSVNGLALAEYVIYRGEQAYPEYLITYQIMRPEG

Take `O=C(CCSCc1nc2ccccc2c(=O)[nH]1)N1CCC(c2nnc(-c3ccc(F)cc3)o2)CC1` [Example 93, 2-(((3-(4-(5-(4-fluorophenyl)-1,3,4-oxadiazol-2-yl)-1-piperidinyl)-3-oxopropyl)sulfanyl)methyl)-4(3H)-quinazolinone]: the concentration for half-maximal inhibition (IC50) against PARP2 was greater than 170000 nM; against PARP1 it was 8290 nM; in experiment [1] it was 1200 nM; in experiment [3] (400 nM NAD, 60 minutes at RT) it was 95.2 nM; in experiment [4], 85.1 nM. Also, in experiment [2] (SW480 cells, 24 hours), the concentration for a half-maximal effect (EC50) turned out to be 1230 nM.

On to `O=C(CCCc1nc2ccccc2c(=O)[nH]1)N1CCC(N2C(=O)Cc3ccccc32)CC1` [Example 43, 2-(4-oxo-4-(4-(2-oxo-2,3-dihydro-1H-indol-1-yl)-1-piperidinyl)butyl)-4(3H)-quinazolinone], for which the IC50 against PARP2 worked out at 1060 nM; on PARP1 it was 6420 nM; in experiment [1], 1910 nM; in experiment [3], 33.5 nM; in experiment [4] it was 16.6 nM. Also, the EC50 in experiment [2] (SW480, 24 h) stood at 3880 nM.

`Cc1ccc2c(c1)[nH]c(=O)n2C1CCN(C(=O)CCCc2nc3ccccc3c(=O)[nH]2)CC1` [Example 11, 2-(4-(4-(5-methyl-2-oxo-2,3-dihydro-1H-benzimidazol-1-yl)-1-piperidinyl)-4-oxobutyl)-4(3H)-quinazolinone]: the IC50 was 103 nM against PARP2; 867 nM on PARP1; 157 nM in experiment [1]; 2.76 nM in experiment [3] (400 nM NAD, 60 minutes at RT); 1.6 nM in experiment [4]. Also, the EC50 in experiment [2] (SW480 cells, 24 hours) stood at 247 nM.

Take `O=C(CCc1nc2ccccc2c(=O)[nH]1)N[C@H]1CC[C@H](n2c(=O)[nH]c3cc(Cl)ccc32)CC1` [Example 85, N-((1r,4r)-4-(5-chloro-2-oxo-2,3-dihydro-1H-benzo[d]imidazol-1-yl)cyclohexyl)-3-(4-oxo-3,4-dihydroquinazolin-2-yl)propanamide]: the IC50 was 470 nM against PARP2; greater than 85000 nM against PARP1; 14.1 nM in experiment [1]; 0.524 nM in experiment [3] (400 nM NAD, 60 minutes at RT); 0.227 nM in experiment [4]. In addition, the EC50 in experiment [2] (SW480 cells, 24 hours) is 59.7 nM.

Regarding `O=C(CCCc1nc2ccccc2c(=O)[nH]1)N[C@H]1CC[C@H](Oc2ccncc2)CC1` [Example 70, 4-(4-oxo-3,4-dihydro-2-quinazolinyl)-N-(trans-4-(4-pyridinyloxyl)cyclohexyl)butanamide], the IC50 on PARP2 stood at 1810 nM; on PARP1 it was 723 nM; in experiment [1], 252 nM; in experiment [3] (400 nM NAD, 60 minutes at RT), 5.1 nM; in experiment [4], 0.826 nM. For the same compound, in experiment [2] (SW480 cells, 24 hours), the EC50 is 191 nM.

`N#Cc1ccccc1O[C@H]1CC[C@H](NC(=O)CCCc2nc3ccccc3c(=O)[nH]2)CC1` [Example 57, N-(trans-4-(2-cyanophenoxy)cyclohexyl)-4-(4-oxo-3,4-dihydro-2-quinazolinyl)butanamide]: the half-maximal inhibitory concentration (IC50) against PARP2 came to 905 nM; on PARP1, 5960 nM; in experiment [1], 510 nM; in experiment [3] (400 nM NAD, 60 minutes at RT) it was 31.2 nM; in experiment [4], 12.5 nM. Also, the half-maximal effective concentration (EC50) in experiment [2] (SW480 cells, 24 hours) came to 1710 nM.

On to `N#Cc1ccc(O[C@H]2CC[C@H](NC(=O)CCSc3nc4c(c(=O)[nH]3)CCCC4)CC2)cc1` [Example 116, N-(trans-4-(4-cyanophenoxy)cyclohexyl)-3-((4-oxo-3,4,5,6,7,8-hexahydroquinazolin-2-yl)thio)propanamide], for which the IC50 against PARP2 came out at 319 nM; against PARP1, 2500 nM; in experiment [1], 3.79 nM; in experiment [3] (400 nM NAD, 60 minutes at RT), 0.167 nM; in experiment [4] it was 3.13 nM. Besides, in experiment [2] (SW480 cells, 24 hours), the EC50 was determined as 10.7 nM.

`N#Cc1ccc(-c2nnc(C3CCN(C(=O)CCCc4nc5ccccc5c(=O)[nH]4)CC3)o2)cc1` [Example 21, 4-(5-(1-(4-(4-oxo-3,4-dihydroquinazolin-2-yl)butanoyl)piperidin-4-yl)-1,3,4-oxadiazol-2-yl)benzonitrile]: the IC50 at PARP2 stood at 1450 nM; at PARP1, 2030 nM; in experiment [1], 154 nM; in experiment [3] (400 nM NAD, 60 minutes at RT), 17.1 nM; in experiment [4], 4.89 nM. Also, in experiment [2] (SW480 cells, 24 hours), the EC50 was 242 nM.

For `O=C(CCCc1nc2ccccc2c(=O)[nH]1)N[C@H]1CC[C@H](c2nnc(-c3ccc(Cl)cc3)o2)CC1` [Example 29, N-(trans-4-(5-(4-chlorophenyl)-1,3,4-oxadiazol-2-yl)cyclohexyl)-4-(4-oxo-3,4-dihydro-2-quinazolinyl)butanamide], the IC50 on PARP2 is 889 nM; on PARP1 it was 1670 nM; in experiment [1] it was 14.9 nM; in experiment [3] (400 nM NAD, 60 minutes at RT), 0.549 nM; in experiment [4] it was 0.43 nM. In experiment [2] (SW480 cells, 24 hours), the EC50 was 30.2 nM.

Consider `O=C(CCCc1nc2ccccc2c(=O)[nH]1)N1CCC(n2c(=O)[nH]c3cccnc32)CC1` [Example 26, 2-(4-oxo-4-(4-(2-oxo-1,2-dihydro-3H-imidazo[4,5-b]pyridin-3-yl)-1-piperidinyl)butyl)-4(3H)-quinazolinone], for which the IC50 on PARP2 was determined as 397 nM; against PARP1, 4930 nM; in experiment [1], 361 nM; in experiment [3] (400 nM NAD, 60 minutes at RT), 5.07 nM; in experiment [4], 1.51 nM. Moreover, the EC50 in experiment [2] (SW480 cells, 24 hours) amounted to 1410 nM.

In the case of `COc1ccc(-c2nnc([C@H]3CC[C@H](NC(=O)CCCc4nc5ccccc5c(=O)[nH]4)CC3)o2)cc1` [Example 30, N-(trans-4-(5-(4-methoxyphenyl)-1,3,4-oxadiazol-2-yl)cyclohexyl)-4-(4-oxo-3,4-dihydro-2-quinazolinyl)butanamide], the IC50 turned out to be 1270 nM at PARP2; 1060 nM against PARP1; 10.6 nM in experiment [1]; 0.567 nM in experiment [3] (400 nM NAD, 60 minutes at RT); 0.191 nM in experiment [4]. For the same compound, in experiment [2] (SW480 cells, 24 hours), the concentration for a half-maximal effect (EC50) amounted to 13.9 nM.

Turning to `N#Cc1cccc(-c2nnc(C3CCN(C(=O)CCCc4nc5ccccc5c(=O)[nH]4)CC3)o2)c1` [Example 20, 3-(5-(1-(4-(4-oxo-3,4-dihydroquinazolin-2-yl)butanoyl)piperidin-4-yl)-1,3,4-oxadiazol-2-yl)benzonitrile], the IC50 at PARP2 was found to be 370 nM; on PARP1, 2850 nM; in experiment [1] it was 151 nM; in experiment [3] (400 nM NAD, 60 minutes at RT), 11.3 nM; in experiment [4], 3.19 nM. For the same compound, the EC50 in experiment [2] (SW480 cells, 24 hours) worked out at 166 nM.

As to `O=C(CCCc1nc2ccccc2c(=O)[nH]1)N1CCC(c2nnc(-c3cnccn3)o2)CC1` [Example 14, 2-(4-oxo-4-(4-(5-(2-pyrazinyl)-1,3,4-oxadiazol-2-yl)-1-piperidinyl)butyl)-4(3H)-quinazolinone], the half-inhibitory concentration (IC50) against PARP2 worked out at 2180 nM; at PARP1, 8540 nM; in experiment [1], 837 nM; in experiment [3] (400 nM NAD, 60 minutes at RT) it was 79.7 nM; in experiment [4], 15.5 nM. Moreover, in experiment [2] (SW480 cells, 24 hours), the concentration giving a half-maximal response (EC50) turned out to be 1250 nM.

Take `O=C(CCSc1nc2ccccc2c(=O)[nH]1)N1CCC(c2nnc(-c3ccccc3)o2)CC1` [Example 83, 2-((3-oxo-3-(4-(5-phenyl-1,3,4-oxadiazol-2-yl)piperidin-1-yl)propyl)thio)quinazolin-4(3H)-one]: the IC50 was determined as 345 nM at PARP2; 1510 nM on PARP1; 726 nM in experiment [1]; 31.4 nM in experiment [3] (400 nM NAD, 60 minutes at RT); 12.5 nM in experiment [4]. The EC50 in experiment [2] (SW480 cells, 24 hours) is 2680 nM.

Take `O=C(CSc1nc2ccccc2c(=O)[nH]1)N1CCC(c2nnc(-c3ccccc3)o2)CC1` [Example 89, 2-((2-oxo-2-(4-(5-phenyl-1,3,4-oxadiazol-2-yl)piperidin-1-yl)ethyl)thio)quinazolin-4(3H)-one]: the IC50 was 350 nM against PARP2; 1390 nM against PARP1; 1710 nM in experiment [1]; 16.6 nM in experiment [3] (400 nM NAD, 60 minutes at RT); 6.33 nM in experiment [4]. The EC50 in experiment [2] (SW480 cells, 24 hours) was 2330 nM.

For `O=C(CCCc1nc2ccccc2c(=O)[nH]1)N1CCC(n2c(=O)[nH]c3cc(Cl)ccc32)CC1` [Example 27, 2-(4-(4-(5-chloro-2-oxo-2,3-dihydro-1H-benzimidazol-1-yl)-1-piperidinyl)-4-oxobutyl)-4(3H)-quinazolinone], the IC50 was determined as 99.7 nM against PARP2; 887 nM against PARP1; 63.7 nM in experiment [1]; 1.34 nM in experiment [3] (400 nM NAD, 60 minutes at RT); 0.478 nM in experiment [4]. For the same compound, the EC50 in experiment [2] (SW480 cells, 24 hours) is 114 nM.

For `O=C(CCCc1nc2ccccc2c(=O)[nH]1)N1CCC(c2nnc(-c3ccccn3)o2)CC1` [Example 12, 2-(4-oxo-4-(4-(5-(2-pyridinyl)-1,3,4-oxadiazol-2-yl)-1-piperidinyl)butyl)-4(3H)-quinazolinone], the concentration for half-maximal inhibition (IC50) is 1920 nM against PARP2; 6290 nM against PARP1; 1840 nM in experiment [1]; 89.7 nM in experiment [3] (400 nM NAD, 60 minutes at RT); 15.9 nM in experiment [4]. The EC50 in experiment [2] (SW480 cells, 24 hours) was found to be 1220 nM.

On to `O=C(CCCc1nc2ccccc2c(=O)[nH]1)N[C@H]1CC[C@H](Oc2cccc(Cl)c2)CC1` [Example 66, N-(trans-4-(3-chlorophenoxy)cyclohexyl)-4-(4-oxo-3,4-dihydro-2-quinazolinyl)butanamide], for which the IC50 turned out to be 998 nM on PARP2; 1390 nM at PARP1; 614 nM in experiment [1]; 3.11 nM in experiment [3] (400 nM NAD, 60 minutes at RT); 1.02 nM in experiment [4]. The EC50 in experiment [2] (SW480 cells, 24 hours) was 628 nM.

For `COc1ccc2[nH]c(=O)n(C3CCN(C(=O)CCCc4nc5ccccc5c(=O)[nH]4)CC3)c2c1` [Example 34, 2-(4-(4-(6-methoxy-2-oxo-2,3-dihydro-1H-benzimidazol-1-yl)-1-piperidinyl)-4-oxobutyl)-4(3H)-quinazolinone], the IC50 on PARP2 stood at 431 nM; at PARP1, 629 nM; in experiment [1], 101 nM; in experiment [3] (400 nM NAD, 60 minutes at RT) it was 1.97 nM; in experiment [4], 0.981 nM. In experiment [2] (SW480 cells, 24 hours), the EC50 amounted to 96.9 nM.

For the origin of these results see patent US9505749B2, “Quinazolinone compounds and derivatives thereof” (AMGEN INC., priority 2012, dated 2016).
